Assay results: article PMC5656322, “BAK1 is involved in AtRALF1-induced inhibition of root cell expansion” (PLoS Genetics, 2017)
Where “and” joins values, the source holds several entries; their conditions need not be identical. Identical values can stand only once. Where no end group is shown, it is not given here.

B1: Recombinant His-tagged AtRALF1 (peptide, UniProt Q9SRY3 72-120, looked up)
chain: ATTKYISYQSLKRNSVPCSRRGASYYNCQNGAQANPYSRGCSKIARCRS
modifications: ends and bridges not checked; also: His-tagged
notes: Rapid alkalinization factor 1 (AtRALF1), Arabidopsis thaliana; the active peptide (49 residues by the label RALF1(9–49)), cloned in pET-28b at NdeI/HindIII; printed molecular weight 7,631 Da; The printed mass of 7,631 Da would fit the 49-residue peptide with the His tag of pET-28b still on it (surmise); also called recombinant AtRALF1; R1
B2: Recombinant His-tagged HA-BAK1-ECD (domain or fragment, Arabidopsis thaliana, UniProt Q94F62 26-225, looked up)
chain: NAEGDALSALKNSLADPNKVLQSWDATLVTPCTWFHVTCNSDNSVTRVDLGNANLSGQLVMQLGQLPNLQYLELYSNNITGTIPEQLGNLTELVSLDLYLNNLSGPIPSTLGRLKKLRFLRLNNNSLSGEIPRSLTAVLTLQVLDLSNNPLTGDIPVNGSFSLFTPISFANTKLTPLPASPPPPISPTPPSPAGSNRITG
notes: BRI1-associated receptor kinase 1 (BAK1), Arabidopsis thaliana; extracellular domain; printed molecular weight 25,654.04 Da; HA-BAK1-ECD amplified from the pGADT7 construct, moved to pDEST17; also called BAK1-ED; not shown: HA, N-terminal, kept

Columns and labels:
BAK1 = BAK1 phosphorylation assay, anti-phosphothreonine; format: in vivo, Arabidopsis thaliana; conditions: pBAK1:BAK1-HA roots, 20 min; AtRALF1 1, 2, 10 μM; BL 0.1 μM
Description: Transgenic plants pBAK1:BAK1-6xHA were grown in vertical plates for 10–15 days. The plants were treated with 0.1 μM BL, 2 μM RALF1(9–49), 1 μM, 2 μM or 10 μM AtRALF1 for 20 min. The roots were isolated, and the microsomal fractions were obtained as described above. The microsomal fractions were incubated with anti-HA beads (EZview Red Anti-HA Affinity Gel, Sigma) for 2 h at 4 °C to immunoprecipitate the BAK1 protein. The unbound materials were removed by washing 3 times. Proteins were separated by SDS/PAGE and further analyzed by protein blotting using anti-HA (Thermo Scientific), or anti-phosphothreonine (Novus Biologicals), or anti-phosphoserine (Novus Biologicals) antibodies.

[1] = tested on: Arabidopsis seedlings, primary root; test: Root growth inhibition assay, vertical plates; format: in vivo, Arabidopsis thaliana; conditions: bak1 mutants, 0 or 1 μM BL, 8 days
[2] = tested on: cytosolic Ca^2+ in Arabidopsis seedlings; conditions: BL; ref [38]; cited from earlier work
BAK1 gene = conditions: BL hormone treatment, Arabidopsis plants; ref [29]; cited from earlier work
Source text: It has been previously shown through microarray experiments that the treatment of Arabidopsis plants with AtRALF1 causes BAK1 gene induction by approximately 1.56-fold. Our data are consistent with that previous observation and add a new gene to the list of AtRALF1-inducible genes. […] The fact that AtRALF1 peptide and BL treatment both induce BAK1 gene expression provides further evidence that BAK1 ...

[3] = tested on: AtPRP3, AtHRGP2, CPD and DWF4 genes; conditions: cited from earlier work
Source text: AtRALF1-overexpressing plants are less sensitive to exogenous brassinosteroids (BRs). […] AtRALF1 also induces two cytochrome P450 monooxygenase genes related to the BR biosynthetic pathway: Constitutive Photomorphism and Dwarfism (CPD) and DWARF4 (DWF4). We exposed the bak1 mutants to the same concentration of AtRALF1 and evaluated the capacity to induce the AtPRP3, AtHRGP2, CPD and DWF4 genes. None of the AtRALF1-inducible genes were ...

[4] = tested on: plants overexpressing the AtRALF1 gene; conditions: plants overexpressing AtRALF1 treated with BL; ref [9]; cited from earlier work
Source text: AtRALF1-overexpressing plants are less sensitive to exogenous brassinosteroids (BRs). […] The expansin A5 gene (AtEXPA5), which is involved in the regulation of cell ...

[5] = tested on: Arabidopsis seedlings, primary root; test: Root growth inhibition assay, liquid medium, 24-well plates; format: in vivo, Arabidopsis thaliana; conditions: 10 μM, 2 days
Description: (A) and (B) Arabidopsis seedlings (2 days old) were treated with 10 μM AtRALF1 or water (H20) for 2 days. The values are the mean ± SD of at least 25 seedlings. Triple asterisks indicate P < 0.01 (Student’s t test); ns, not significant. (C) Four-day-old seedlings were transferred to media containing different concentrations of AtRALF1, and the primary root length was measured after 8 days of treatment. The data represent the mean value ± SD of 30 seedlings. […] Representative Arabidopsis seedlings after 8 days of treatment with AtRALF1 are shown below. Seedlings were arranged on plates after the treatment for imaging. Scale bars, 1 cm. (D) Two-day-old seedlings were treated with 10 μM AtRALF1 or water for 2 days, and root cell length was measured after 2 days of treatment. Cells from the root endodermis in the differentiation zone were measured. The values are the mean ± SD of approximately 150 cells. Triple asterisks indicate P < 0.01 (Student’s t test); ns, not significant.
Aliquots of 1 ml of medium containing seeds were distributed into 24-well plates. The peptides (10 μM) were added after 2 days, and the root length was measured 2 days after treatment. To maximize root growth, the seeds were germinated in vertical plates. […] The root length was measured 8 days after treatment unless stated otherwise. Control plants were grown under identical conditions in a peptide-free medium. Quantitative data were obtained as previously described. The experiments were repeated at least 3 times using independent biological replicates with similar results. The data from one representative experiment are shown. For cell length measurements, AtRALF1 peptide (10 μM) was added after 2 days of germination, and the cell length was measured after 2 days of treatment. The cell wall was stained with a 1 mg ml^-1 propidium iodide solution (Sigma) in the dark for 15 min and washed twice with water. Cells of the endodermis of the root differentiation zone were imaged and measured using confocal microscopy (Olympus FV1000). Approximately 30 plants from each genetic background and at least 5 cells per root were measured. The wavelengths for excitation and emission were 555 and 655 nm, respectively. Image processing was completed using the Olympus FluoView software.
Arabidopsis seedlings (2-days-old) were treated with 10 μM AtRALF1 or water (H20) for 2 days. The values are the mean ± SD of at least 25 seedlings. Triple asterisks indicate P < 0.01 (Student’s t test); ns, not significant. (PDF) Click here for additional data file.
Supplementary file pgen.1007053.s002.pdf: S2 Fig Loss-of-function bak1 mutants are sensitive to the inhibitory activity of AtRALF23/34 on root growth. Arabidopsis seedlings (2-day-old) were treated with 10 μM RALF1(9–49), RALF1(I6A), AtRALF1, AtRALF23 and AtRALF34 or water (H20) for 2 days. The values are the mean ± SD of at least 20 seedlings. […] (PDF) Click here for additional data file.

HA-BAK1-ECD = test: Co-immunoprecipitation in vitro; format: binding, Arabidopsis thaliana; conditions: 100 nM each protein, pH 6.3, overnight 4 °C, agarose anti-HA beads
Description: The purified recombinant proteins AtRALF1 and HA-BAK1-ECD and the synthetic peptides RALF1(9–49) and RALF1(I6A) were combined in 200 μl of interaction buffer pH 6.3 (100 mM NaCl; 1 mM PMSF; 0.5%Triton X; 2.7 mM KCl; 8 mM NaH2PO4; 2 mM KH2PO4) overnight at 4 °C. A 100-nM concentration of each protein was used. This solution was incubated with agarose anti-HA beads (EZview Red Anti-HA Affinity Gel, Sigma) for 30 min at 4 °C to immunoprecipitate the proteins, washed 5 times with interaction buffer, eluted in 1X SDS sample buffer containing 10% β-mercaptoethanol and applied to an SDS-PAGE gel. The immunoprecipitated HA-BAK1-ECD and co-immunoprecipitated AtRALF1 were analyzed by protein blotting as described. The primary and secondary antibodies used to detect AtRALF1 were anti-AtRALF1 (1:10,000, Celula B, Immunology Laboratory, UFRGS, Brazil) and goat anti-rabbit HRP-conjugated secondary antibody (1: 10,000, BioRad), respectively.

BAK1-GFP = test: Co-immunoprecipitation with microsomal fraction of N. benthamiana leaves expressing BAK1-GFP; format: binding, Arabidopsis thaliana; conditions: 600 nM peptide, 1 h, 4 °C, anti-GFP antibody
Description: This assay was performed as previously described with some modifications. The BAK1 coding region was amplified from Arabidopsis genomic cDNA using standard PCR with the primers BAK1 Fw and BAK1 Rv (S1 Table). To generate the p35S-BAK1:GFP plasmid, the fragment was cloned into the pENTR D-TOPO vector and later transferred to the pk7FWG2 vector [56]. Leaves from N. benthamiana plants were agroinfiltrated with p19 vector alone and p19 co-expressed with p35S-BAK1:GFP, as previously described. After 3 days, leaves were homogenized in extraction buffer [300 mM sucrose, 100 mM Tris-HCl pH 7.5, 25 mM EDTA, 25 mM NaF, 1 mM Na2MoO4, 1 mM PMSF, 1 mM DTT and protease inhibitor cocktail (Roche), pH 6.2 adjusted] and centrifuged at 1,000 g for 10 min at 4°C, and the supernatant was then centrifuged at 100,000 g for 50 min at 4°C to precipitate the microsomal pellet. The pellet was resuspended in the extraction buffer plus 0.5% Triton-X and incubated with 600 nM recombinant AtRALF1 or 600 nM RALF1(I6A) for 1 h at 4°C. The complexes were incubated with anti-GFP antibody (Santa Cruz Biotechnology) and Sepharose Beads plus protein A (Life Technologies) overnight at 4°C. […] The AtRALF1/BAK1-GFP complex bound to the beads was eluted with denaturing in 10 μl of 1X loading buffer (NuPAGE LDS buffer) at 95°C for 8 min, then analyzed by SDS-PAGE. The proteins were detected as previously described.

fer4 mutant = conditions: ref [10]; cited from earlier work
Source text: Isothermal titration calorimetry has been used to estimate Kd values for plant ligand-receptor kinase pairs, IDA/ HAESA and AtRALF23/FERONIA are among them and our Kd values are consistent with these reported values. […] Previous studies have shown the possibility of additional sites for AtRALF1 binding. In cell suspension cultures of tomato, tobacco and alfalfa, the ^125I-azido-RALF peptide cross-linked to two p ...

[6] = biological target: B2; test: ITC; VP ITC; 0.7 mM BAK1-ECD in the syringe (28 injections of 10 μl) into 0.03 mM peptide in the 1.4 ml cell; 15 mM HEPES pH 6.8; 25 °C; three independent experiments; conditions: both partners purified
[7] = biological target: B1; test: as above; conditions: both partners purified

CC(C)[C@H](C)[C@@H](O)[C@H](O)[C@@H](C)[C@H]1CC[C@H]2[C@@H]3COC(=O)[C@H]4C[C@H](O)[C@H](O)C[C@]4(C)[C@H]3CC[C@]12C [BL, brassinolide, reference compound]
BAK1 phosphorylation in threonine residues (BAK1): increase resulting from the treatment of the seedlings with BL | sensitivity of root growth to BL [1]: Reduced sensitivity | mobilization of Ca^2+, dependence on BAK1 [2]: independent of BAK1 | BAK1 gene induction (BAK1 gene): promotes BAK1 gene induction in Arabidopsis plants | AtRALF23 gene expression ([3]; Arabidopsis seedlings, BL, ref [4],[19]): down-regulated | CPD and DWF4 gene expression ([3]; BL treatment, ref [9]): down-regulated by BL treatment | AtEXPA5 expression ([3]; roots of treated seedlings, ref [16]–[18]): induced by BL | hypocotyl elongation [4]: a minor increase in hypocotyl elongation | number of lateral roots [4]: no change in the number of lateral roots | root length [4]: no increase in root length

RALF1(I6A): inactive AtRALF1 peptide which has an Ile replaced by an Ala in the conserved YISY domain (ATTKYASYQSLKRNSVPCSRRGASYYNCQNGAQANPYSRGCSKIARCRS; ends and bridges not checked; cysteine pairing not given here; UniProt Q9SRY3 72-120, looked up, variant I6A)
activity of negative control peptides on root growth [5]: inactive | co-immunoprecipitation with HA-BAK1-ECD (HA-BAK1-ECD): did not co-immunoprecipitate with BAK1 | co-immunoprecipitation with BAK1-GFP (BAK1-GFP): did not co-immunoprecipitate with BAK1-GFP

^125I-labeled AtRALF1: AtRALF1 radiolabeled with ^125I, earlier study [10] (ATTKYISYQSLKRNSVPCSRRGASYYNCQNGAQANPYSRGCSKIARCRS; ends and bridges not checked; also: radiolabeled with 125I; UniProt Q9SRY3 72-120, looked up)
reduction of specific binding of 125I-labeled AtRALF1 (fer4 mutant): approximately 40%

B1
Kd [6]: 4.6 µM and 4.9 µM and 5.8 µM

B2
stoichiometry N [7]: 1.5 and 0.5 and 1.27
